Assay results from US20250099596A1, “TETRAHYDRONAPHTHALENE COMPOUND, AND PREPARATION METHOD THEREFOR AND USE THEREOF IN MEDICINE” (Jiangsu Hengrui Pharmaceuticals Co., Ltd., priority 2021, published 2025).

Legend:
MCF7 cells = assay: Inhibitory effects on MCF7 cell proliferation (CellTiter-Glo); type: cell-based; conditions: Homo sapiens, 144 h, 6 days incubation, read-out: IC50 (nM), inhibition of MCF7 cell proliferation
Description: (§1) MCF7 cells (TCHu74, National Collection of Authenticated Cell Cultures) were cultured in an MEM (GE Healthcare, SH30024.01) complete medium containing 10% fetal bovine serum. On day 1 of the experiment, MCF7 cells were seeded into a 96-well plate at a density of 3,000 cells/well using MEM containing 2% fetal bovine serum, with each well containing 135 μL of cell suspension. The plate was incubated in a 37° C., 5% CO2 cell incubator overnight. The next day, different concentrations of test compounds prepared in media were added at 15 μL/well. The final concentrations of the compounds were 9 concentration points obtained by 4-fold serial dilution from 1000 nM. A blank control containing 0.5% DMSO was set up. The plate was incubated in a 37° C., 5% CO2 cell incubator for 6 days. On day 8, the 96-well cell culture plate was taken out, and CellTiter-Glo® Luminescent Cell Viability Assay (Promega, G7573) was added at 75 μL/well. After the plate was left at room temperature for 10 min, luminescence signal readings were taken on a multilabel microplate reader (PerkinElmer, VICTOR 3). The IC50 values for the inhibitory activity of the compounds were calculated from the concentrations of the compounds and the luminescence signal readings using Graphpad Prism software.

MCF7/ERα Y537S cells = assay: Inhibitory activity on proliferation of ERα mutant-expressing MCF7 cells; type: cell-based; conditions: Homo sapiens, 144 h, 6 days incubation, CellTiter-Glo, read-out: IC50 (nM), inhibition of proliferation of ERα mutant-expressing MCF7 cells
Description: The objective of this experiment was to determine the inhibitory activity of the compounds of the present disclosure on the proliferation of ERα mutant-expressing MCF7 cells.
as §1, with “cells expressing the ERα Y537S mutant were constructed by lentiviral infection. MCF7/ERα Y537S cells” for “cells (TCHu74, National Collection of Authenticated Cell Cultures)”, “bovine serum and […] puromycin.” for “bovine serum.”, “experiment,” for “experiment, MCF7”, “135 µL” for “135 μL”, “75 µL/well.” for “75 μL/well.”

Row | Structure (SMILES) | IC50 (MCF7 cells) | IC50 (MCF7/ERα Y537S cells)
1 | O=C1CCC(N2Cc3cc(N4CCN(CC5CCN(c6ccc([C@@H]7c8ccc(O)cc8CCC78CCCC8)cc6F)CC5)CC4)ccc3C2=O)C(=O)N1 (stereo in doubt) [Example 36, (S)-3-(5-(4-((1-(2-Fluoro-4-((R)-6′-hydroxy-3′,4′-dihydro-1′H-spiro[cyclopentane-1,2′-naphthalen]-1′-yl)phenyl)piperidin-4-yl)methyl)piperazin-1-yl)-1-oxoisoindolin-2-yl)piperidine-2,6-dione] | 1.56 nM | 8.35 nM
2 | O=C1CCC(N2Cc3cc(N4CCN(CC5CCN(c6ccc([C@@H]7c8ccc(O)cc8CC[C@@H]7C7CCOCC7)c(F)c6)CC5)CC4)ccc3C2=O)C(=O)N1 (mixture of isomers) [Example 12-1, 3-(5-(4-((1-(3-Fluoro-4-((1S,2R)-6-hydroxy-2-(tetrahydro-2H-pyran-4-yl)-1,2,3,4-tetrahydronaphthalen-1-yl)phenyl)piperidin-4-yl)methyl)piperazin-1-yl)-1-oxoisoindolin-2-yl)piperidine-2,6-dione] | 0.45 nM | 1.28 nM
3 | CC(C)C[C@H]1CCc2cc(O)ccc2[C@H]1c1ccc(N2CCC(CN3CCN(c4ccc5c(c4)CN([C@@H]4CCC(=O)NC4=O)C5=O)CC3)CC2)cc1 [Example 42, (R)-3-(5-(4-((1-(4-((1R,2R)-6-Hydroxy-2-isobutyl-1,2,3,4-tetrahydronaphthalen-1-yl)phenyl)piperidin-4-yl)methyl)piperazin-1-yl)-1-oxoisoindolin-2-yl)piperidine-2,6-dione] | 0.88 nM | 3.09 nM
4 | CCC(CC)C[C@H]1CCc2cc(O)ccc2[C@H]1c1ccc(N2CCC(CN3CCN(c4ccc5c(c4)CN([C@H]4CCC(=O)NC4=O)C5=O)CC3)CC2)cc1 [Example 38, (S)-3-(5-(4-((1-(4-((1R,2R)-6-Hydroxy-2-(2-ethylbutyl)-1,2,3,4-tetrahydronaphthalen-1-yl)phenyl)piperidin-4-yl)methyl)piperazin-1-yl)-1-oxoisoindolin-2-yl)piperidine-2,6-dione] | 4.64 nM | 13.8 nM
5 | O=C1CCC(N2Cc3cc(N4CCN(CC5CCN(c6ccc([C@@H]7c8ccc(O)cc8CC[C@@H]7C7CCCCC7)cc6)CC5)CC4)ccc3C2=O)C(=O)N1 (mixture of isomers) [Example 15-1, 3-(5-(4-((1-(4-((1R,2R)-2-Cyclohexyl-6-hydroxy-1,2,3,4-tetrahydronaphthalen-1-yl)phenyl)piperidin-4-yl)methyl)piperazin-1-yl)-1-oxoisoindolin-2-yl)piperidine-2,6-dione] | 0.46 nM | 2.18 nM
6 | CC(C)CC[C@H]1CCc2cc(O)ccc2[C@H]1c1ccc(N2CCC(CN3CCN(c4ccc5c(c4)CN([C@H]4CCC(=O)NC4=O)C5=O)CC3)CC2)cc1 [Example 40, (S)-3-(5-(4-((1-(4-((1R,2S)-6-Hydroxy-2-isopentyl-1,2,3,4-tetrahydronaphthalen-1-yl)phenyl)piperidin-4-yl)methyl)piperazin-1-yl)-1-oxoisoindolin-2-yl)piperidine-2,6-dione] | 3.17 nM | 8.89 nM
7 | O=C1CC[C@H](N2Cc3cc(N4CCN(CC5CCN(c6ccc([C@@H]7c8ccc(O)cc8OC[C@@H]7C7CCC7)cc6)CC5)CC4)ccc3C2=O)C(=O)N1 [Example 32, (S)-3-(5-(4-((1-(4-((3R,4R)-3-Cyclobutyl-7-hydroxychroman-4-yl)phenyl)piperidin-4-yl)methyl)piperazin-1-yl)-1-oxoisoindolin-2-yl)piperidine-2,6-dione] | 8.34 nM | 28.8 nM
8 | CC[C@H]1CCc2cc(O)ccc2[C@H]1c1ccc(N2CCC(CN3CCN(c4ccc5c(c4)CN([C@H]4CCC(=O)NC4=O)C5=O)CC3)CC2)cc1 [Example 28, (S)-3-(5-(4-((1-(4-((1R,2S)-6-Hydroxy-2-ethyl-1,2,3,4-tetrahydronaphthalen-1-yl)phenyl)piperidin-4-yl)methyl)piperazin-1-yl)-1-oxoisoindolin-2-yl)piperidine-2,6-dione] | 1.51 nM | 5.21 nM
9 | CC(C)C[C@H]1CCc2cc(O)ccc2[C@H]1c1ccc(N2CCC(CN3CCN(c4ccc5c(c4)CN([C@H]4CCC(=O)NC4=O)C5=O)CC3)CC2)c(F)c1 [Example 37, (S)-3-(5-(4-((1-(2-Fluoro-4-((1R,2R)-6-hydroxy-2-isobutyl-1,2,3,4-tetrahydronaphthalen-1-yl)phenyl)piperidin-4-yl)methyl)piperazin-1-yl)-1-oxoisoindolin-2-yl)piperidine-2,6-dione] | 1.46 nM | 5.27 nM
10 | O=C1CC[C@H](N2Cc3cc(N4CCN(CC5CCN(c6ccc([C@@H]7c8ccc(O)cc8CC[C@@H]7CC7CCC7)cc6)CC5)CC4)ccc3C2=O)C(=O)N1 [Example 35, (S)-3-(5-(4-((1-(4-((1R,2R)-2-(Cyclobutylmethyl)-6-hydroxy-1,2,3,4-tetrahydronaphthalen-1-yl)phenyl)piperidin-4-yl)methyl)piperazin-1-yl)-1-oxoisoindolin-2-yl)piperidine-2,6-dione] | 3 nM | 8.48 nM

Now from value to compound:

Row | IC50 (MCF7 cells) | IC50 (MCF7/ERα Y537S cells) | Structure (SMILES)
11 | 0.3 nM | 1.38 nM | O=C1CCC(N2Cc3cc(N4CCN(CC5CCN(c6ccc([C@@H]7c8ccc(O)cc8CC[C@@H]7C7CCC(F)(F)CC7)cc6)CC5)CC4)ccc3C2=O)C(=O)N1 (mixture of isomers) [Example 10, 3-(5-(4-((1-(4-((1R,2R)-2-(4,4-Difluorocyclohexyl)-6-hydroxy-1,2,3,4-tetrahydronaphthalen-1-yl)phenyl)piperidin-4-yl)methyl)piperazin-1-yl)-1-oxoisoindolin-2-yl)piperidine-2,6-dione]
12 | 1.94 nM | 7.83 nM | O=C1CCC(N2Cc3cc(N4CCN(CC5CCN(c6ccc([C@@H]7c8ccc(O)cc8CCC78CCCC8)cc6)CC5)CC4)ccc3C2=O)C(=O)N1 (mixture of isomers) [Example 2-1, 3-(5-(4-((1-(4-((R)-6′-Hydroxy-3′,4′-dihydro-1′H-spiro[cyclopentane-1,2′-naphthalen]-1′-yl)phenyl)piperidin-4-yl)methyl)piperazin-1-yl)-1-oxoisoindolin-2-yl)piperidine-2,6-dione]
13 | 8.17 nM | 24.4 nM | O=C1CCC(N2Cc3cc(N4CCN(CC5CCN(c6ccc([C@H]7c8ccc(O)cc8CC[C@H]7C7CCCC7)cc6)CC5)CC4)ccc3C2=O)C(=O)N1 (stereo partly drawn) [Example 14-2, 3-(5-(4-((1-(4-((1S,2S)-2-Cyclopentyl-6-hydroxy-1,2,3,4-tetrahydronaphthalen-1-yl)phenyl)piperidin-4-yl)methyl)piperazin-1-yl)-1-oxoisoindolin-2-yl)piperidine-2,6-dione]
14 | 2.14 nM | 8.73 nM | O=C1CCC(N2Cc3cc(N4CCN(CC5CCN(c6ccc(C7c8ccc(O)cc8CC[C@@H]7C7CCC(F)(F)CC7)cc6)CC5)CC4)ccc3C2=O)C(=O)N1 (stereo partly drawn) [Example 9, 3-(5-(4-((1-(4-((1,2)-cis-2-(4,4-Difluorocyclohexyl)-6-hydroxy-1,2,3,4-tetrahydronaphthalen-1-yl)phenyl)piperidin-4-yl)methyl)piperazin-1-yl)-1-oxoisoindolin-2-yl)piperidine-2,6-dione]
15 | 3.02 nM | 12.7 nM | O=C1CC[C@H](N2Cc3cc(N4CCN(CC5CCN(c6ccc([C@@H]7c8ccc(O)cc8CC[C@@H]7Cc7ccccc7)cc6)CC5)CC4)ccc3C2=O)C(=O)N1 [Example 30, (S)-3-(5-(4-((1-(4-((1R,2R)-2-Benzyl-6-hydroxy-1,2,3,4-tetrahydronaphthalen-1-yl)phenyl)piperidin-4-yl)methyl)piperazin-1-yl)-1-oxoisoindolin-2-yl)piperidine-2,6-dione]
16 | 1.51 nM | 19.2 nM | O=C1CCC(N2Cc3cc(N4CCN(CC5CCN(c6ccc([C@@H]7c8ccc(O)cc8CC[C@@H]7CC7CC7)cc6)CC5)CC4)ccc3C2=O)C(=O)N1 (stereo in doubt) [Example 34, (S)-3-(5-(4-((1-(4-((1R,2R)-2-(Cyclopropylmethyl)-6-hydroxy-1,2,3,4-tetrahydronaphthalen-1-yl)phenyl)piperidin-4-yl)methyl)piperazin-1-yl)-1-oxoisoindolin-2-yl)piperidine-2,6-dione]
